Laboratory results as given in PubChem BioAssay AID1934 (Broad Institute, 2009).
Records with an inconclusive call do not appear.

Test system: DRD oncogenic fibroblast viability, ATP luminescence
Experiment: DRD fibroblast viability loss – cell-based, non-viral oncogenic, luminescence, dose response (AID 1934)

For `C=C(C=O)CC1CC(O)[C@]2(C)OC3CC4OC5C[C@]6(C)O[C@]7(C)CCC8OC9C[C@]%10(C)OC%11C(C)=CC(=O)OC%11CC%10OC9C[C@@H](C)C8OC7CC6O[C@]5(C)CC5OC5C4OC3CC2O1` (stereo partly specified), the EC50 was 824 nM.
